Data set [1] addresses T1, purified recombinant CDC25C enzyme (MBP-CDC25C protein) (Homo sapiens, UniProt P30307).
T1 construct: made in house
T1 sequence (P30307 1-473): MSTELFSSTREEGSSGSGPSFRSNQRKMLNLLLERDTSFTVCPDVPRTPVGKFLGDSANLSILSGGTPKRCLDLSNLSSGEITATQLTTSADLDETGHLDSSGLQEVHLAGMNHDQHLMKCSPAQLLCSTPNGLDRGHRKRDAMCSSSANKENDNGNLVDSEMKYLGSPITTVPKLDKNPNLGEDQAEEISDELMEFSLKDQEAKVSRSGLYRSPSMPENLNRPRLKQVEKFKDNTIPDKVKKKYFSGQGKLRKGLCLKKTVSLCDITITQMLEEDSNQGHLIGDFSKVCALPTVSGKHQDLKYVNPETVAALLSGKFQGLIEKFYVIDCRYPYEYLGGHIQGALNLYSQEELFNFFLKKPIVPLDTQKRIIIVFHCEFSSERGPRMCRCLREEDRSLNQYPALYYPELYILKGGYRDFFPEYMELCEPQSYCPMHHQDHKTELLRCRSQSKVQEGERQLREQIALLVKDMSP
Briefly: Phosphatase activity of the purified recombinant CDC25C enzyme (OMFP dephosphorylation, fluorescence). It is filed as biochemical. The settings on record: OMFP 500 μM, 4 hours at 30° C., three independent experiments; nested upper bounds; read-out: IC50 for the phosphatase activity of the purified recombinant CDC25-C enzyme. The protocol: i) Determination of the Phosphatase Activity of the Purified Recombinant CDC25C Enzyme:
The phosphatase activity of the MBP-CDC25C protein is evaluated through its dephosphorylation of 3-O-methylfluorescein-phosphate (OMFP) to form 3-O-methylfluorescein (OMF), determining the fluorescence of the reaction product at 475 nm. This assay can be used to identify inhibitors of the recombinant CDC25 enzyme. The preparation of the MBP-CDC25C fusion protein is described in the PCT patent application published under the number WO 01/44467.
The reaction is performed in 384-well plates in a final volume of 50 μl. The MBP-CDC25C protein (prepared as described hereinabove) is stored in the following elution buffer: 20 mM Tris-HCl pH 7.4; 250 mM NaCl; 1 mM EDTA; 1 mM dithiothreitol (DTT); 10 mM maltose. It is diluted to a concentration of 60 μM in the following reaction buffer: 50 mM Tris-HCl pH 8.2; 50 mM NaCl; 1 mM DTT; 20% glycerol. The background noise is determined using with the buffer without adding the enzyme. The products are tested at decreasing concentrations from 40 μM. The reaction is initiated by the addition of OMFP solution to a final concentration of 500 μM (prepared immediately before use from a 12.5 mM stock solution in 100% DMSO (Sigma #M2629)). After 4 hours at 30° C. in a disposable 384-well plate, the fluorescence measured at OD 475 nm is read on a Victor^2 plate reader (EGG-Wallac). The concentration that produces 50% inhibition of the enzyme reaction is calculated from three independent experiments. Only the values that fall within the linear part of the sigmoid curve are used for the linear regression analysis.

For data set [2], the system named is MIA PaCa-2 (human pancreatic carcinoma cells). Briefly: Anti-proliferative activity, MIA PaCa-2 cells (WST1 colorimetric test). It is filed as cell-based. The settings on record: MIA PaCa-2, 96 h, 96 hours treatment, up to 10 μM, nested upper bounds, read-out: IC50 for proliferation of the MIA PaCa-2 cell lines. As to the method: ii) Characterisation of Anti-Proliferative Activity:
By way of an example, the effect of treating two human cell lines MIA PaCa-2 and DU 145 with the compounds of the examples described hereinbefore will be studied. The cell lines DU 145 (human prostate carcinoma cells) and MIA PaCa-2 (human pancreatic carcinoma cells) were obtained from the American Tissue Culture Collection (Rockville, Md., USA). A 96-well plate was inoculated on day 0 with cells in 80 μl of Dulbecco's modified Eagle's medium (Gibco-Brl, Cergy-Pontoise, France) with 10% heat-inactivated foetal calf serum (Gibco-Brl, Cergy-Pontoise, France), 50,000 units/l of penicillin and 50 mg/l of streptomycin (Gibco-Brl, Cergy-Pontoise, France) and 2 mM of glutamine (Gibco-Brl, Cergy-Pontoise, France). The cells were treated on day 1 for 96 hours with increasing concentrations of each test compound up to 10 μM. At the end of this period, cell proliferation is quantified by means of a colorimetric test based on cleavage of the tetrazolium salt WST1 by the mitochondrial dehydrogenases in the viable cells, resulting in formation of formazan (Boehringer Mannheim, Meylan, France). These tests are performed in duplicate with 8 determinations per concentration tested. For each test compound, the values within the linear part of the sigmoid curve were subjected to linear regression analysis and used to estimate the IC50 inhibitory concentration. The products are solubilised in dimethylsulfoxide (DMSO) at a concentration of 10^−2 M and used in culture with a final DMSO concentration of 0.1%.

For `Cl.O=c1c(NCCNc2cc(N3CCCC3)nc(N3CCCC3)n2)c(Nc2ccc(Cl)cc2)c1=O`, the melting point (commonly the temperature, or range, at which the solid turns liquid) was > 370 °C.

Compound `COc1c(NCCNc2cc(N3CCCC3)nc(N3CCCC3)n2)c(=O)c1=O` [Example 1, 3-({2-[(2,6-dipyrrolidin-1-ylpyrimidin-4-yl)amino]ethyl}amino)-4-methoxycyclobut-3-ene-1,2-dione] yielded a melting point of 116 to 118 °C. Further, in data set [1], the IC50 is ≤ 5 µM.

For the compound `O=c1c(NCCNc2cc(N3CCCC3)nc(N3CCCC3)n2)c(N2CCCCC2)c1=O` [Example 2, 3-({2-[(2,6-dipyrrolidin-1-ylpyrimidin-4-yl)amino]ethyl}amino)-4-piperidin-1-ylcyclobut-3-ene-1,2-dione], the melting point is > 250 °C. For the same compound, the IC50 in data set [1] was ≤ 5 µM.

The compound `CCCCNc1c(NCCNc2cc(N3CCCC3)nc(N3CCCC3)n2)c(=O)c1=O` [Example 3, 3-(butylamino)-4-({2-[(2,6-dipyrrolidin-1-ylpyrimidin-4-yl)amino]ethyl}amino)cyclobut-3-ene-1,2-dione] registered a melting point of 246 to 248 °C. Besides, in data set [1], the IC50 was ≤ 1 µM.

Take `O=c1c(NCCNc2cc(N3CCCC3)nc(N3CCCC3)n2)c(N2CCOCC2)c1=O` [Example 4, 3-({2-[(2,6-dipyrrolidin-1-ylpyrimidin-4-yl)amino]ethyl}amino)-4-morpholin-4-ylcyclobut-3-ene-1,2-dione]: the melting point is 242 to 244 °C. Besides, in data set [1], the IC50 was ≤ 5 µM.

Compound `COc1c(NCCN(C)CCNc2cc(N3CCCC3)nc(N3CCCC3)n2)c(=O)c1=O` [Example 6] came in with a melting point of 132 to 134 °C. Besides, the IC50 in data set [1] is ≤ 5 µM.

As to `CN(CCNc1cc(N2CCCC2)nc(N2CCCC2)n1)CCNc1c(O)c(=O)c1=O` [Example 7, 3-({2-[{2-[(2,6-dipyrrolidin-1-ylpyrimidin-4-yl)amino]ethyl}(methyl)amino]ethyl}amino)-4-hydroxycyclobut-3-ene-1,2-dione], the IC50 in data set [1] was ≤ 5 µM.

`O=c1c(NCCNc2cc(N3CCCC3)nc(N3CCCC3)n2)c(Nc2ccc(Cl)cc2)c1=O` [Example 9, 3-[(4-chlorophenyl)amino]-4-({2-[(2,6-dipyrrolidin-1-ylpyrimidin-4-yl)amino]ethyl}amino)cyclobut-3-ene-1,2-dione] had a melting point of 251 to 253 °C. Further, in data set [1], the IC50 was ≤ 1 µM.

In the case of `O=S(=O)(O)O.O=c1c(NCCNc2cc(N3CCCC3)nc(N3CCCC3)n2)c(Nc2ccc(Cl)cc2)c1=O` [Example 9b, 3-[(4-chlorophenyl)amino]-4-({2-[(2,6-dipyrrolidin-1-ylpyrimidin-4-yl)amino]ethyl}amino)cyclobut-3-ene-1,2-dione sulfate], the melting point lay within 263 to 266 °C.

Consider `O=P(O)(O)O.O=c1c(NCCNc2cc(N3CCCC3)nc(N3CCCC3)n2)c(Nc2ccc(Cl)cc2)c1=O` [Example 9c, 3-[(4-chlorophenyl)amino]-4-({2-[(2,6-dipyrrolidin-1-ylpyrimidin-4-yl)amino]ethyl}amino)cyclobut-3-ene-1,2-dione phosphate], for which the melting point was 275 to 278 °C.

`O=C(O)/C=C\C(=O)O.O=c1c(NCCNc2cc(N3CCCC3)nc(N3CCCC3)n2)c(Nc2ccc(Cl)cc2)c1=O` [Example 9d, 3-[(4-chlorophenyl)amino]-4-({2-[(2,6-dipyrrolidin-1-ylpyrimidin-4-yl)amino]ethyl}amino)cyclobut-3-ene-1,2-dione maleate] showed a melting point of 248 to 250 °C.

Turning to `O=c1c(NCCNc2cc(N3CCCC3)nc(N3CCCC3)n2)c(Nc2cccc(-c3nnn[nH]3)c2)c1=O` [Example 12, 3-({2-[(2,6-dipyrrolidin-1-ylpyrimidin-4-yl)amino]ethyl}amino)-4-{[3-(1H-tetrazol-5-yl)phenyl]amino}cyclobut-3-ene-1,2-dione], in data set [1], the IC50 was ≤ 5 µM.

Compound `CC(=O)Nc1ccc(Nc2c(NCCNc3cc(N4CCCC4)nc(N4CCCC4)n3)c(=O)c2=O)cc1` [Example 13, N-(4-{[2-({2-[(2,6-dipyrrolidin-1-ylpyrimidin-4-yl)amino]ethyl}amino)-3,4-dioxocyclobut-1-en-1-yl]amino}phenyl)acetamide] registered a melting point of 263 to 265 °C. The IC50 in data set [1] was ≤ 5 µM.

Regarding `COc1cc(Nc2c(NCCNc3cc(N4CCCC4)nc(N4CCCC4)n3)c(=O)c2=O)cc(OC)c1OC` [Example 14, 3-({2-[(2,6-dipyrrolidin-1-ylpyrimidin-4-yl)amino]ethyl}amino)-4-[(3,4,5-trimethoxyphenyl)amino]cyclobut-3-ene-1,2-dione], the melting point lay in the range of 154 to 156 °C. In addition, in data set [2], the IC50 is ≤ 10 µM. In addition, in data set [1], the IC50 is ≤ 5 µM.

The compound `O=c1c(NCCNc2cc(N3CCCC3)nc(N3CCCC3)n2)c(Nc2ccccc2Cl)c1=O` [Example 16, 3-[(2-chlorophenyl)amino]-4-({2-[(2,6-dipyrrolidin-1-ylpyrimidin-4-yl)amino]ethyl}amino)cyclobut-3-ene-1,2-dione] had a melting point of 179 to 181 °C. In addition, in data set [2], the IC50 was ≤ 10 µM. The IC50 in data set [1] was ≤ 1 µM.

For `CNCc1ccc(Nc2c(NCCNc3cc(N4CCCC4)nc(N4CCCC4)n3)c(=O)c2=O)cc1.Cl` [Example 22, 3-({2-[(2,6-dipyrrolidin-1-ylpyrimidin-4-yl)amino]ethyl}amino)-4-({4-[(methylamino)methyl]phenyl}amino)cyclobut-3-ene-1,2-dione hydrochloride], the melting point was > 260 °C. Further, the IC50 in data set [2] is ≤ 10 µM. The IC50 in data set [1] is ≤ 5 µM.

As for `O=c1c(NCCNc2cc(N3CCCC3)nc(N3CCCC3)n2)c(Nc2ccc(O)cc2)c1=O` [Example 27, 3-({2-[(2,6-dipyrrolidin-1-ylpyrimidin-4-yl)amino]ethyl}amino)-4-[(4-hydroxyphenyl)amino]cyclobut-3-ene-1,2-dione], the melting point was > 260 °C. The IC50 in data set [1] is ≤ 15 µM.

Compound `Cl.NCc1ccc(Nc2c(NCCNc3cc(N4CCCC4)nc(N4CCCC4)n3)c(=O)c2=O)cc1` [Example 28, 3-{[4-(aminomethyl)phenyl]amino}-4-({2-[(2,6-dipyrrolidin-1-ylpyrimidin-4-yl)amino]ethyl}amino)cyclobut-3-ene-1,2-dione hydrochloride] displayed a melting point of 224 to 226 °C. Moreover, the IC50 in data set [2] is ≤ 10 µM. For the same compound, the IC50 in data set [1] is ≤ 5 µM.

`Cl.NCCc1ccc(Nc2c(NCCNc3cc(N4CCCC4)nc(N4CCCC4)n3)c(=O)c2=O)cc1` [Example 30, 3-{[4-(2-aminoethyl)phenyl]amino}-4-({2-[(2,6-dipyrrolidin-1-ylpyrimidin-4-yl)amino]ethyl}amino)cyclobut-3-ene-1,2-dione hydrochloride] came in with a melting point of 250 to 252 °C. Also, the IC50 in data set [1] was ≤ 5 µM.

For `O=c1c(NCCNc2cc(N3CCCC3)nc(N3CCCC3)n2)c(Nc2ccccc2)c1=O` [Example 35, 3-anilino-4-({2-[(2,6-dipyrrolidin-1-ylpyrimidin-4-yl)amino]ethyl}amino)cyclobut-3-ene-1,2-dione], the IC50 in data set [2] is ≤ 10 µM; in data set [1] it was ≤ 1 µM.

(Values after US20100173910A1, “TRIAMINOPYRIMIDINE CYCLOBUTENEDIONE DERIVATIVES USED AS PHOSPHATASE CDC25 INHIBITORS” (IPDRN PHSTMS D.S.S., priority 2007, published 2010).)
